For 28 compounds, IC50 results are on record in patent US8759537B2, “3H-imidazo [4, 5-C] pyridine-6-carboxamides as anti-inflammatory agents” (Boehringer Ingelheim International GmbH, priority 2010, dated 2014).

The structures appear in SMILES notation. pIC50: −log10 of the molar value. Some results are limits rather than exact numbers.

The target of assay [1] is T1, mPGES-1 (Homo sapiens (Human), UniProt O14684). The assay is described as follows: mPGES-1 enzyme assay (HTRF detection of PGE2). Format: biochemical. The conditions noted are these: recombinant human mPGES-1 microsomes, PGH2 2 μM; read-out: mPGES-1 inhibitory effect in the enzyme assay, IC50. Here is the method:
Microsomes from Rosetta E. coli bacteria expressing recombinant human mPGES-1 can be derived as described below:
Inoculate 5 ml LB with Ampicilin (50 μg/ml) and Chloramphenicol (34 μg/ml) with bacteria from freeze culture. Incubate 8 h at 37° C. with 200 rpm. Thereafter, inoculate 500-1000 ml LB containing Amp and Chloro with the 5 ml on culture and grow to OD640 of 0.8-1.0. Chill the culture to +4° C. before induction. Induce the culture with IPTG at a final concentration of 400 μM. Express the protein at room temp 18-23° C. with 200 rpm shaking over night.
The following steps can be performed on the following day: • 1. Spin down the cells in 250 ml centrifuge flasks for 15 min at 7000 rpm (Beckmann Coulte Avanti J-E centrifuge) • 2. Dissolve the pellet from 250 ml culture in 12.5 ml homogenization buffer • 3. (15 mM Tris-HCL pH8, 1 mM EDTA pH8, […], 2.5 mM GSH, 1 Tablet Protease inhibitor per 50 ml buffer) • 4. […] Add 2.5 ml MgCl2 (100 mM) and DNase 12.5 μl (0.8 mg/ml) and incubate on ice for 30 min • 6. Spin down the bacteria debris and save the supernatant, 7000 rpm for 15 min • 7. Isolate the protein containing membranes in the supernatant by ultracentrifugation 120000×g for 2 hour at 4° C. (Sorvall T880 rotor). • 8. Discard the supernatant and dissolve the pellet in 20 mM Potassium phosphate buffer pH7.4 (KH2PO4 and K2HPO4) buffer by sonication (5×10 s, 30% of a 50 W sonifier) and aliquot the enzyme and store aliquots at −80° C.
Before each experiment is performed an aliquot of the enzyme is thawed and it can then be dissolved in 0.1 M Potassium phosphate buffer pH7.4 (KH2PO4 and K2HPO4) buffer containing 2.5 mM GSH.
The aim of this assay is to determine the affinity of a test compound for the mPGES-1 enzyme.
47 μl of recombinant human mPGES-1 (˜0.5 μg protein/well) containing microsomal suspension in a buffer containing GSH, (2.5 mmol/L L-Glutathione reduced, dissolved in 0.1 mol/L Phosphat Buffer pH 7.4) is dispensed in a 384-well plate and thereafter 1 μl of the test compound(s) is/are added and incubated for 25 minutes at room temperature. The enzyme reaction is started by the addition of 2 ul PGH2 (final conc. 2 μM) dissolved in water-free Diglyme. After 60 seconds the reaction is terminated by addition of a stop solution containing FeCl2 (10 μL 0.074 mol/l FeCl2). The samples are diluted between 1:25 in PBS (Phosphate Buffered Saline). 10 μl of the diluted samples are transferred to 384-well low volume plate. In order to quantify the amount of PGE2 that has been formed, a homogenous time resolved fluorescent (HTRF) detecting of PGE2 has been performed using a commercially available kit from Cisbio according to the manufactures recommendation. […] Briefly, the diluted samples are mixed with 5 μl PGE2-d2 conjungate and 5 μl anti-PGE2 cryptate conjungate. After an incubation period of the plates over night, the fluorescence is measured by the use of an appropriate microplate reader.
The quantification plate contains also wells with different concentrations of PGE2 as calibration curve for the calculation of the PGE2 concentrations from the HTRF ratio values.
From all mPGES enzyme assay the background is subtracted and the IC50 is calculated over a nonlinear regression with conventional software.

Assay [2] deals with T1, mPGES-1. Description: A549 cell-based assay (PGE2 formation, IL-1β stimulated, 50% human serum). The conditions noted are these: A549 cells. Here is the method:
Although the enzymatic assay is a high throughput assay the disadvantage is that it uses a recombinant protein which is not in its natural environment. Accordingly a cellular assay was established in which a cell line of human origin (A549) expressing the mPGES-1 protein was used. In addition in order to mimic the situation in humans in which compounds can be bound to plasma proteins 50% human serum is added in the assay.
Cells were detached using Trypsin-EDTA. A549 cells were seeded in a 384-well collagene plate at a density of 7000 cells/well (50 μl) in F-12 medium containing 1% Penicillin-Streptomycin and 50% human serum. The cells were allowed to attach for 3-4 h. […] The total volume is 100 μl.
Concentrations of PGE2 in the cell free medium (10 μl) were measured using a commercially available HTRF kit from Cisbio (as described above). The PGE2 formation in the absence of test compound was taken as 100%.
IC50 values were derived from at 6-8 point titrations using conventional software.

Where [3] appears, read: IL-1β 5 ng/ml, read-out: mPGES-1 inhibitory effect in the cell assay, IC50.

T1 sequence (O14684 whole entry): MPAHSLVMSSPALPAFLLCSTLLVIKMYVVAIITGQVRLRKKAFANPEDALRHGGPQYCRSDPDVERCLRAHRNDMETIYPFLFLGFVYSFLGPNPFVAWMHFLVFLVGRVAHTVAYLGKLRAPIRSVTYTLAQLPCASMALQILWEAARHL

As a reminder, the pIC50 is the negative decadic logarithm of the IC50, by convention in mol/L. For `Cn1c(Nc2c(Cl)ccc(CNC(=O)C(C)(C)C)c2Cl)nc2cc(C(=O)N[C@H]3CC[C@H](C(F)(F)F)CC3)c(OCC(F)F)cc21` [Example 1, N-(trans-4-Trifluoromethyl-cyclohex-1-yl)-2-{2,6-dichloro-3-[(2,2-dimethyl-propionylamino)-methyl]-phenylamino}-6-(2,2-difluoro-ethoxy)-1-methyl-1H-benzimidazole-5-carboxylic acid amide], the pIC50 was 8.70 on mPGES-1 [1] and more than 9.00 at mPGES-1 [2] (setting [3]).
On to `CC(C)(C)C(=O)NCc1ccc(Cl)c(Nc2nc3cc(C(=O)N[C@H]4CC[C@H](C(F)(F)F)CC4)c(OCC(F)F)cc3[nH]2)c1Cl` [Example 2, N-(trans-4-Trifluoromethyl-cyclohex-1-yl)-2-{2,6-dichloro-3-[(2,2-dimethyl-propionylamino)-methyl]-phenylamino}-6-(2,2-difluoro-ethoxy)-1H-benzimidazole-5-carboxylic acid amide], for which the pIC50 was 8.70 on mPGES-1 [1] and 8.52 on mPGES-1 [2] (setting [3]).
In the same order, the values of `Cn1c(Nc2c(Cl)ccc(CNC(=O)C(C)(C)C)c2Cl)nc2cc(C(=O)N[C@H]3CC[C@H](C(F)(F)F)CC3)c(F)cc21` [Example 3, N-(trans-4-Trifluoromethyl-cyclohex-1-yl)-2-{2,6-dichloro-3-[(2,2-dimethyl-propionylamino)-methyl]-phenylamino}-6-fluoro-1-methyl-1H-benzimidazole-5-carboxylic acid amide] are 8.40 and 9.00.
Take `CC(C)(C)C(=O)NCc1ccc(Cl)c(Nc2nc3cc(C(=O)Nc4ccc(Br)cc4)c(OCC(F)F)cc3[nH]2)c1Cl` [Example 4, N-(4-Bromo-phenyl)-2-{2,6-dichloro-3-[(2,2-dimethyl-propionylamino)-methyl]-phenylamino}-6-(2,2-difluoro-ethoxy)-1H-benzimidazole-5-carboxylic acid amide]: the figures for the pIC50 on mPGES-1 [1] and on mPGES-1 [2] (setting [3]) were 8.40 and 8.70, respectively.
Turning to `Cn1c(Nc2c(Cl)ccc(CNC(=O)C(C)(C)C)c2Cl)nc2cc(C(=O)Nc3ccc(Br)cc3)c(OCC(F)F)cc21` [Example 5, N-(4-Bromo-phenyl)-2-{2,6-dichloro-3-[(2,2-dimethyl-propionylamino)-methyl]-phenylamino}-6-(2,2-difluoro-ethoxy)-1-methyl-1H-benzimidazole-5-carboxylic acid amide], the pIC50 is 8.70 on mPGES-1 [1] and more than 9.00 on mPGES-1 [2] (setting [3]).
As to `Cn1c(Nc2c(Cl)ccc(CNC(=O)C(C)(C)C)c2F)nc2cc(C(=O)Nc3ccc(Br)cc3)c(OCC(F)F)cc21` [Example 8], the negative-log IC50 (pIC50) is 8.52 at mPGES-1 [1] and more than 9.00 at mPGES-1 [2] (setting [3]).
As for `CC(C)(C)C(=O)NCc1ccc(F)c(Nc2nc3cc(C(=O)Nc4ccc(F)c(Cl)c4)c(F)cc3[nH]2)c1F` [Example 24], the pIC50 at mPGES-1 [1] was 8.52.
Take `Cn1c(Nc2c(Cl)ccc(CNC(=O)CC#N)c2Cl)nc2cc(C(=O)Nc3ccc(F)c(Cl)c3)c(OCC(F)F)cc21` [Example 154]: on mPGES-1 [2] (setting [3]), the pIC50 is 7.44.
Regarding `Cn1c(Nc2c(Cl)ccc(CNC(=O)C(C)(C)CO)c2Cl)nc2cc(C(=O)Nc3ccc(F)c(Cl)c3)c(OCC(F)F)cc21` [Example 155], the pIC50 on mPGES-1 [2] (setting [3]) is 8.70.
On the same count and under the same terms, in the case of `Cn1ccnc1C(=O)NCc1ccc(Cl)c(Nc2nc3cc(C(=O)Nc4ccc(F)c(Cl)c4)c(OCC(F)F)cc3n2C)c1Cl` [Example 156] it was 8.00; in that of `Cn1c(Nc2c(Cl)ccc(CNC(=O)c3c(F)cccc3Cl)c2Cl)nc2cc(C(=O)Nc3ccc(F)c(Cl)c3)c(OCC(F)F)cc21` [Example 158], more than 9.00.
`Cn1c(Nc2c(Cl)ccc(CNC(=O)C(F)F)c2Cl)nc2cc(C(=O)Nc3ccc(F)c(Cl)c3)c(OCC(F)F)cc21` [Example 159]: at mPGES-1 [2] (setting [3]), the pIC50 was 9.00.
On to `Cn1c(Nc2c(Cl)ccc(CNC(=O)C3CCCC3)c2Cl)nc2cc(C(=O)Nc3ccc(F)c(Cl)c3)c(OCC(F)F)cc21` [Example 160], for which the pIC50 at mPGES-1 [2] (setting [3]) is more than 9.00.
With `Cn1c(Nc2c(Cl)ccc(CNC(=O)C(O)C(F)(F)F)c2Cl)nc2cc(C(=O)Nc3ccc(F)c(Cl)c3)c(OCC(F)F)cc21` (stereo not shown) [Example 161], on mPGES-1 [2] (setting [3]), the pIC50 is 8.70.
Take `Cn1c(Nc2c(Cl)ccc(CNC(=O)C(C)(F)F)c2Cl)nc2cc(C(=O)Nc3ccc(F)c(Cl)c3)c(OCC(F)F)cc21` [Example 162]: the pIC50 on mPGES-1 [2] (setting [3]) was more than 9.00.
On to `COCC(=O)NCc1ccc(Cl)c(Nc2nc3cc(C(=O)Nc4ccc(F)c(Cl)c4)c(OCC(F)F)cc3n2C)c1Cl` [Example 163], for which the pIC50 on mPGES-1 [2] (setting [3]) was 8.30.
Consider `Cn1c(Nc2c(Cl)ccc(CNC(=O)C(N)C(F)(F)F)c2Cl)nc2cc(C(=O)Nc3ccc(F)c(Cl)c3)c(OCC(F)F)cc21` (stereo not shown) [Example 164], for which the pIC50 at mPGES-1 [2] (setting [3]) is 7.82.
Consider `Cn1c(Nc2c(Cl)ccc(CNC(=O)C3(C(F)(F)F)CCCC3)c2Cl)nc2cc(C(=O)Nc3ccc(F)c(Cl)c3)c(OCC(F)F)cc21` [Example 165], for which, on mPGES-1 [2] (setting [3]), the negative-log IC50 (pIC50) was more than 9.00.
Consider `Cn1c(Nc2c(Cl)ccc(CNC(=O)c3ccno3)c2Cl)nc2cc(C(=O)Nc3ccc(F)c(Cl)c3)c(OCC(F)F)cc21` [Example 166], for which the pIC50 on mPGES-1 [2] (setting [3]) is 8.15.
`Cn1c(Nc2c(Cl)ccc(CNC(=O)C3CC(F)(F)C3)c2Cl)nc2cc(C(=O)Nc3ccc(F)c(Cl)c3)c(OCC(F)F)cc21` [Example 167]: the pIC50 at mPGES-1 [2] (setting [3]) was 8.22.
Still for that read-out and setting: next, `Cn1c(Nc2c(Cl)ccc(CNC(=O)c3sccc3Cl)c2Cl)nc2cc(C(=O)Nc3ccc(F)c(Cl)c3)c(OCC(F)F)cc21` [Example 168]: more than 9.00.
Turning to `Cn1c(Nc2c(Cl)ccc(CNC(=O)C3(C)CCCO3)c2Cl)nc2cc(C(=O)Nc3ccc(F)c(Cl)c3)c(OCC(F)F)cc21` (stereo not shown) [Example 170], on mPGES-1 [2] (setting [3]), the pIC50 is more than 9.00.
On to `Cn1c(Nc2c(Cl)ccc(CNC(=O)C3(O)CC3)c2Cl)nc2cc(C(=O)Nc3ccc(F)c(Cl)c3)c(OCC(F)F)cc21` [Example 171], for which the pIC50 at mPGES-1 [2] (setting [3]) was 8.40.
As to `Cn1c(Nc2c(Cl)ccc(CNC(=O)C3CCC3)c2Cl)nc2cc(C(=O)Nc3ccc(F)c(Cl)c3)c(OCC(F)F)cc21` [Example 172], the pIC50 on mPGES-1 [2] (setting [3]) is 8.70.
Take `Cn1c(Nc2c(Cl)ccc(CNC(=O)C3(C(F)(F)F)CC3)c2Cl)nc2cc(C(=O)Nc3ccc(F)c(Cl)c3)c(OCC(F)F)cc21` [Example 174]: the pIC50 on mPGES-1 [2] (setting [3]) was more than 9.00.
Same read-out and setting: in the case of `Cn1c(Nc2c(Cl)ccc(CNC(=O)C(C)(C)C(F)(F)F)c2Cl)nc2cc(C(=O)Nc3ccc(F)c(Cl)c3)c(OCC(F)F)cc21` [Example 176] it was more than 9.00.
For the compound `Cn1c(Nc2c(Cl)ccc(CNC(=O)C(C)(C)C)c2Cl)nc2cc(C(=O)Nc3ccc(F)c(Cl)c3)c(OCCF)cc21` [Example 177, N-(3-Chloro-4-fluoro-phenyl)-2-{2,6-dichloro-3-[(2,2-dimethyl-propionylamino)-methyl]-phenylamino}-6-(2-fluoroethoxy)-1-methyl-1H-benzimidazole-5-carboxylic acid amide], the pIC50 at mPGES-1 [2] (setting [3]) was more than 9.00.
For the compound `Cn1c(Nc2cc(CNC(=O)C(C)(C)C)ccc2Cl)nc2cc(C(=O)NCC3CC3)c(OCC(F)F)cc21` [[drawing 49] of PCT/EP2010/052799, reference compound], the pIC50 at mPGES-1 [2] (Table C comparison of selected benzimidazoles, read-out: Cell IC50) was less than 6.70.
